Assays:
Type in all cases: cell-based, human
H460 cells = assay: anchorage independent growth by soft agar assay, H460; details: low activated STAT3 level
Protocol: Soft agar colony formation assays were performed in 12-well plate as described in Balasis, et al., Clin. Cancer. […] Colonies were allowed to grow for 3-4 weeks, and quantified by staining with 1 mg/mL MTT (Sigma, St. Louis, Mo., USA) overnight.
Several cell lines were used, some with persistently Y705 phosphorylated STAT3 and others without (FIG. 9A).

[1] = system: STAT3-responsive promoter-firefly luciferase reporter (pLucTKS3); assay: luciferase reporter assay, STAT3-responsive promoter
Protocol: (§1) MDA-MB-468 cells were plated into 12-well plate with 4×10^5 cells per well. The cells were transiently transfected with pLucSRE, pLucTKS3 or STAT3-C with β-gal and then were treated with vehicle, S3I-1756 or S3I-1757 for 48 hours. Then cytosolic extracts of equal total protein were prepared from S3I-1757-treated or -untreated and analyzed for luciferase activity using a TD-20/20 luminometer (Turner Designs, Sunnyvale, Calif., USA) described by us previously.
(§2) To this end, MDA-MB-468 cells were transiently co-transfected with a STAT3-responsive promoter-firefly luciferase reporter (pLucTKS3) and 3-gal reporter used to normalize the transfection efficacy. To determine the selectivity of S3I-1757 to suppress STAT3-dependent over STAT3-independent transcriptional activation, MDA-MB-468 cells were also co-transfected with SRE promoter-renilla luciferase reporter (pLucSRE) and β-gal reporter. […] STAT3-C spontaneously dimerizes via disulfide bonds in the absence of tyrosine phosphorylation and is therefore not predicted to be inhibited by a small molecule that is designed to mimic phosphotyrosine binding.

[2] = system: MDA-MB-468, MDA-MB-231 and A-549 cells; assay: Matrigel invasion assay, cells with activated STAT3; details: 48 hours
Protocol: Invasion assay was performed in BD BioCoat™ Matrigel® Invasion Chamber in 24-well plates. A549, MDA-MB-468, MDA-MB-231 and H460 cells were seeded at 25,000 cells/insert in the top chamber over the Matrigel. The bottom chamber contains 20% FBS as the “chemoattractant.” Vehicle, S3I-1756, or S3I-1757 were added the following day. The cells were incubated for 48 hours, after which the cells in the top chamber were carefully removed and the filter membranes containing the invaded cells on the outside of the filter were fixed with methanol, stained with crystal violet and photographed.

STAT3 binding to EGFR = molecular target: T1, STAT3 binding to EGFR (Mus musculus, UniProt P42227); assay: co-immunoprecipitation of EGFR and P-STAT3 with HA-STAT3 after EGF stimulation; details: HA-STAT3/FLAG-STAT3/HEK293 cells stimulated with EGF
T1 construct: expressed in transfected cells; host or cells: HEK293 stably co-expressing HA-STAT3 and FLAG-STAT3; EGFR endogenous; stimulated with 100 ng/ml EGF
Protocol: For EGF stimulation group, HEK-293/FLAG-STAT3/HASTAT3 cells were treated by 100 ng/ml EGF for 30 minutes before making cell lysate. Protein A or G agarose (EMD Millipore, Billerica, Mass., USA) was washed twice with PBS and restore to 50% slurry with PBS. 500 μg of lysate were pre-cleared by mixture of protein A and protein G-agarose for 1 h at 4° C. and then remove protein A and G-agarose by centrifuge at 1300 rpm for 3 minutes. And then 500 μg of lysate was immunoprecipitated with 50 ng of HA antibody overnight at 4° C. on shaker and then capture the immunocomplex by adding 100 μl Protein A and G agarose/sepharose bead slurry for 1 hour at 4° C. Samples were washed five times with lysis buffer and then boiled in 5×SDS-PAGE sample buffer and run on SDS-PAGE gel. Protein was transferred to nitrocellulose membrane and then blotted as described above for HA, FLAG, pSTAT3, EGFR, and STAT3.
Therefore, it was determined if the intracellular reciprocal binding of 2 full-length STAT3 proteins is inhibited. To this end, an assay was developed to measure directly STAT3-STAT3 dimerization in intact cells by cloning HA-tagged STAT3 and FLAG-tagged STAT3, generating HEK293 cells that stably co-express HA-STAT3 and FLAG-STAT3 and using these cells for coimmunoprecipitation and co-localization. […]

[3] = system: P-STAT3 in the nucleus of MDA-MB-468 cells; assay: P-STAT3 nuclear accumulation by immunofluorescence
Protocol: MDA-MB-468 cells were plated at 4000 cells/well in 8-chamber slide. […] Cells were fixed, washed, and permeabilized as describe above. Specimens were then blocked in 1% bovine serum albumin (BSA) for 30 min and incubated with anti-pSTAT3 (Cell Signaling), antibody at 1:50 dilution at 4° C. overnight. Subsequently, cells were rinsed 4-5 times in PBS, incubated with Alexa Fluor secondary antibody for 1 hour at room temperature in the dark. Specimens were then washed 5 times with PBS, covered with cover slides with [sequence] mounting medium containing DAPI (Vector Lab, Inc., Burlingame, Calif.), and examined immediately under Zeiss Upright Fluorescence Microscope (Zeiss, Thornwood, N.Y., USA).

[4] = system: P-STAT3, P-Erk, P-Akt, Bcl-xL, Survivin, MMP9 and Cyclin D1 in MDA-MB-468 cells; assay: western immunoblotting of P-STAT3, P-Akt, P-Erk and STAT3 target genes; details: 18 hours
Protocol: MDA-MB-468 cells were treated with vehicle (DMSO), S3I-1757 at 50 μM, 100 μM and 200 μM, and S3I-1756 at 200 μM for 18 hours. Cells were then lysed with RIPA buffer (20 mM Tris-HCl (pH 7.4), 5 mM EDTA, 10 mM Na4P2O7, 100 mM NaF, 2 mM Na3VO4, 1% NP-40.1 mM PMSF and 10 mg/ml aprotinin). The cell lysates were denatured by boiling with 5×SDS-PAGE sample buffer for 5 minutes and run on SDS-PAGE gel. The proteins were then transferred to membranes that were blocked with 5% non-fat milk in Tris Buffer Saline with 0.1% Tween-20 (TBST) buffer for 30 minutes at room temperature, and incubated with primary antibodies (pY705STAT3, pAKT, AKT, pERK1/2, MMP9, and CyclinDi) 4° C. overnight at dilution of 1:1000 in 3% BSA, followed by washing and incubation with secondary antibody at dilution of 1:1000 in 5% non-milk Tris Buffer Saline with 0.1% Tween-20 (TBST) buffer for 1 hours at room temperature. The membranes were then washed with 1×PBS buffer for 10 minutes for 3 times and developed with ECL kit (PerkinElmer, Waltham, Mass., USA).
To this end, MDA-MB-468 cells were treated with vehicle, S3I-1756 or increasing concentration of S3I-1757 and processed for western blotting.

[5] = molecular target: dimerization of FLAG-STAT3 and HA-STAT3 (Mus musculus, UniProt P42227); assay: co-localization of FLAG-STAT3 and HA-STAT3 by immunofluorescence; details: HEK293 cells; 1, 2 or 4 hours
Protocol: HEK-293/FLAG-Stat3/HA-Stat3 cells were cultured (4000 cells per well) with G418 400 ug/ml in 8 well chamber slide. The cells were treated with S3I-1757 or S3I-1756 for 1 hour, 2 hours, or 4 hours. The cells were then rinsed with phosphate buffered saline (PBS), fixed with ice-cold methanol for 15 minutes, washed 3 times in PBS, permeabilized with 0.2% Triton X-100 for 15 minutes, and further washed 3-4 times with PBS. Cells were then blocked in 1% bovine serum albumin (BSA) for 30 min and incubated with anti-HA (Santa Cruz, Santa Cruz, Calif., USA) or anti-FLAG (Sigma, St. Louis, Mo., USA) primary antibody at 1:100 dilution at 4° C. overnight. Subsequently, cells were rinsed 4-5 times in PBS, incubated with Alexa fluor secondary antibody (Invitrogen, Carlsbad, Calif., USA) for 1 hour at room temperature in the dark. Cells were then washed 5 times with PBS, covered with cover slides with […] mounting medium containing DAPI (Vector Lab, Inc., Burlingame, Calif.), and examined immediately under Zeiss Upright Fluorescence Microscope (Zeiss, Thornwood, N.Y., USA).
HASTAT3/FLAG-STAT3/HEK 293 cells were treated with vehicle, S3I-1757 or S3I-1756 and the cells were processed for immunofluorescence staining for FLAG-STAT3 and HA-STAT3 and analyzed by confocal microscopy.

[6] = system: MDA-MB-468 cells transiently transfected with vector or STAT3C; assay: STAT3-C rescue: western blotting, MTT, migration and invasion
Description: To this end, MDA-MB-468 were transfected cells with STAT3-C, then treated the cells with S3I-1757 and processed the cells for western blotting, cell growth, migration and invasion.

[7] = system: MDA-MB-231 and A-549 cells; assay: wound healing (migration) assay, cells with persistently activated STAT3
Protocol: A549, MDA-MB-231 and H460 cells were seeded at 6×10^5 cells per dish into 60 mm plate and allowed to grow overnight. Wounds were made the following day by scratching the cells with pipette tips (1-10 μL). Cells were treated with vehicle, S3I-1756 or S3I-1757 and allowed to migrate into the scratched area for 16 hours in regular growth medium. The migration of cells was visualized at 10× magnification using a Leica Microscope at time 0 (right before the drug was added) and 16 hours after vehicle, S3I-1756, or S3I-1757 treatments.
The cancer cells were cultured with serum-starved medium for 8 hours before scratching the cells with a pipette tip and treating with increasing concentrations of S3I-1757 for 24 hours. […] Finally, the ability of S3I-1757 to inhibit selectively invasion was determined.

[8] = system: SRE promoter-renilla luciferase reporter (pLucSRE); assay: luciferase reporter assay, SRE promoter; details: MDA-MB-468; 48 hours
Protocol: as §1, §2

[9] = MDA-MB-468 transfected with STAT3-C

T1 sequence (P42227 whole entry): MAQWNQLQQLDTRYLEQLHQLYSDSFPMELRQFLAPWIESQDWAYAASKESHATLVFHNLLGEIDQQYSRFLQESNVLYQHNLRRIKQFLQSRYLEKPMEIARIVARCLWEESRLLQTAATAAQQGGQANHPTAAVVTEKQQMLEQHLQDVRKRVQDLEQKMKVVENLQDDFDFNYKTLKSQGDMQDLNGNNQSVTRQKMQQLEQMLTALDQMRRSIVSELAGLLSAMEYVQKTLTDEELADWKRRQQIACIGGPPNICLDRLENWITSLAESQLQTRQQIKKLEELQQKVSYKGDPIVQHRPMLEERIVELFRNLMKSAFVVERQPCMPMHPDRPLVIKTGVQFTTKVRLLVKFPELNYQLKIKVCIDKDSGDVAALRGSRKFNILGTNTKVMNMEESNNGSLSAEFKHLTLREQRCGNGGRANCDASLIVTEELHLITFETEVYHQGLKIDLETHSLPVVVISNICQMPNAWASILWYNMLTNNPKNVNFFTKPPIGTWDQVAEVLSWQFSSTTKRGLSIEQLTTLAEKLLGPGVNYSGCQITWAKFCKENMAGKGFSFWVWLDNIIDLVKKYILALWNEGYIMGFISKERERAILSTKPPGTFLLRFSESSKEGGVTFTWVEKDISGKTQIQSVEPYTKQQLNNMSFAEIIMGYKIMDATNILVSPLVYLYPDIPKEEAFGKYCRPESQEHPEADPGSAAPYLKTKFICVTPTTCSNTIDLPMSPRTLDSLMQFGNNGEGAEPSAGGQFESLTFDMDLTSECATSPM
Chain of dimerization of FLAG-STAT3 and HA-STAT3 (P42227 whole entry): as above

O=C(O)c1cc(N(Cc2ccc(C3CCCCC3)cc2)C(=O)c2ccc(Oc3ccccc3)cc2)ccc1O [Compound 20g, 5-(N-(4-Cyclohexylbenzyl)-4-phenoxybenzamido)-2-hydroxybenzoic acid]
anchorage-independent growth (soft agar), H460 (H460 cells): little effect | STAT3-dependent luciferase activity (pLucTKS3) ([1]; MDA-MB-468, 48 hours): less luciferase activity | STAT3-dependent transcriptional activity in cells transfected with STAT3-C [1, 9]: rescued from the S3I-1757 inhibition | invasion, MDA-MB-468, MDA-MB-231 and A-549 [2]: inhibited invasion | EGFR and P-STAT3 co-immunoprecipitated with HA-STAT3 (STAT3 binding to EGFR): inhibited these interactions | levels of p-STAT3 in the nucleus ([3]; 2 hours and 4 hours): dramatically decreased | P-STAT3 nuclear accumulation ([3]; 18 hours, various concentrations): inhibited P-STAT3 nuclear accumulation in a concentration-dependent manner starting at 50 μM | expression of STAT3 target genes Bcl-xL, survivin, cyclin D1, MMP9 [4]: inhibited the expression of STAT3 target genes | phosphorylation of STAT3-Y705 (western blotting) [4]: inhibited the phosphorylation of STAT3-Y705 in a concentration dependent manner starting at 50 μM | selectivity of inhibition over Akt and Erk1/2 phosphorylation [4]: selective for STAT3 over Akt and Erk1/2 phosphorylation | co-localization of FLAG-STAT3 and HA-STAT3 (yellow color) [5]: progressively less yellow color over time | apoptosis induction (caspase 3, PARP) ([6]; MDA-MB-468, FIG. 11A): induced activation of caspase 3 and PARP cleavage | expression levels of BclxL, cyclin D1 and survivin ([6]; MDA-MB-468, FIG. 11A): inhibited the expression levels of these proteins | down regulation of BclxL, cyclin D1, survivin and apoptosis with ectopic STAT3-C [6, 9]: ectopic expression of STAT3-C inhibited the ability of S3I-1757 to down regulate | inhibition of migration and invasion, STAT3-C-transfected cells [6, 9]: partially rescued | proliferation/survival by MTT with STAT3-C ([6]; MDA-MB-468 transfected with STAT3-C, FIG. 11B): STAT3-C inhibited S3I-1757 from inhibiting the proliferation/survival | migration and invasion, vector-transfected cells ([6]; MDA-MB-468 transfected with vector DNA): inhibited the migration and invasion | migration (wound healing), MDA-MB-231 and A-549 [7]: prevented this migration | SRE-driven luciferase activity (STAT3-independent) [8]: minimal effect

Source: patent publication US10954258B2, “STAT3 dimerization inhibitors” (H. LEE MOFFITT CANCER CENTER AND RESEARCH INSTITUTE, INC., priority 2012, dated 2021)
